Values joined by “and” are separate entries in the source; they are usually repeats but may differ in a detail not shown here. Equal values may be shown once. Read-outs that look alike come from different tables or passages of the source.
Legend:
[1] = Zeta-potential measurement; assay type: physicochemical; settings: for Zeta-pot. / mV: zeta potential of peptide, Fig S15 source data
In short: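 Surface charge of aggregated peptides: 1 mg/mL solutions in PBS (pH 7.4) incubated 1 d at RT, diluted into 1 mM KCl just before reading. Electrophoretic mobility converted to zeta potential by the Smoluchowski formula; triplicate measurements from two separate experiments averaged.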

[2] = test system: HIV-1 infection of TZM-bl cells; test: HIV-1 infectivity enhancement assay, β-galactosidase luminescence; assay type: cell-based; settings: for Rel-to EFC / n-fold to virus: Fig S8 panels B, D; for Log10 Inf. rel. to EF-C: log10 of HIV-1 infection of TZM-bl cells relative to EF-C, Fig S15 source data, asymmetric std dev errors
[3] = β-sheet content by ATR-FT-IR; assay type: physicochemical
In short: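 Spectra: 64 scans, 2 cm^-1, lyophilized PNF (1 mg/mL source). CR = 100 − 100 × filtrate/original fluorescamine signal; triplicate, ± SD.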

[4] = Turbidity, derived count rate of scattered light; assay type: physicochemical; settings: for Log Count Rate: log of derived count rate; for Count Rate: turbidity; for Count Rate / Zeta Count Rate / kcps: derived count rate of scattered light
In short: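 One-day room-temperature aggregation at 1 mg/mL in PBS (pH 7.4) preceded measurement; samples then went into 1 mM KCl. Triplicates per sample, two independent experiments averaged.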

[5] = Feb2021, Log10 of infectivity relative to EF-C
[6] = Feb2021, figures match the 1.3 µM column
[7] = Feb2021, infectivity relative to virus only
[8] = Feb2021, n-fold infectivity relative to EF-C
[9] = Feb2021 run, infectivity n-fold relative to virus alone
[10] = Feb2021 run, log10 of infectivity relative to EF-C
[11] = Feb2021 run, n-fold infectivity relative to EF-C
[12] = infectivity enhancement relative to EF-C
[13] = infectivity n-fold relative to virus alone
[14] = infectivity class (low / medium / high) of each library peptide, main list in c1-c6, same classes repeated in sub-lists of sequences containing the hydrophobicity/charge patterns P+,H0,P+,H0,P0,H0,P0, P+,H0,P0,H0,P0,H0,P0, P+,H0,P0,H0
[15] = Fig S8 panels A, C, asymmetric log errors
[16] = mean, std deviation in next column
[17] = mean, std deviation in separate column
[18] = Feb2021, n-fold enhancement relative to EF-C
[19] = category 1 or 0 from count rate, key not given

| Sequence | Zeta Pot. / mV [1] [mV] | Zeta category ( +1 = if > 4 mV;-1 = if < -4 mV; 0 = -4mV to 4 mV) [1] | Zeta Pot. / mV ([1]; mean, Std Zeta in next column) [mV] | Zeta Pot. / mV ([1]; mean, Std in separate column) [mV] | Zeta-pot. / mV [1] [mV] | Log10 of Rel to EFC (Feb2021) [2, 5] | Absolute Infectivity / RLU /s (Feb2021) [2, 6] [RLU /s] | n-fold to virus (Feb2021) [2, 7] | Rel-to EFC (Feb-2021) [2, 8] | n-fold to virus (Feb2021) [2, 9] | Log10 of Rel to EFC (Feb2021) [2, 10] | Rel-to EFC (Feb-2021) [2, 11] | Rel-to EFC [2, 12] | n-fold to virus [2, 13] | infectivity [2, 14] | Log10 Inf. rel. to EF-C [2] | FTIR ß-sheet content/ % ([3]; ATR-FT-IR) | Zeta Count Rate / kcps [4] [kcps] | Zeta Count Rate / kcps [4, 16] [kcps] | Zeta Count Rate / kcps [4, 17] [kcps] | further results |
| --- | --- | --- | --- | --- | --- | --- | --- | --- | --- | --- | --- | --- | --- | --- | --- | --- | --- | --- | --- | --- | --- |
| CKFKQFFNM [CK14] | 15.2 | 1 (+1 = if > 4 mV) | 15.2 | 15.2 | 15.2 | -0.3892 | 15720 | 17.15 | 0.4081 | 17.15 | -0.3892 | 0.4081 | 0.4081 | 17.15 | medium | -0.3892 | 0% | 27264.3 | 27264.3 | 27264.3 | Zeta category ( +1 = if > 4 mV;-1 = if < -4 mV; 0 = -4mV to 4 mV) ([1]; category derived from the zeta potential): 1 (+1 = if > 4 mV); Rel-to EFC (Feb-2021) ([2]; Feb2021, infectivity enhancement relative to EF-C): 0.4081; Log Count Rate [4, 15]: 4.436; Log Count Rate ([4]; Fig S8 panels B, D): 4.436; Count Rate ([4]; Fig S8 panels B, D): 27264.3; Zeta Count Rate Category ([4]; category 1 / 0, no key given): 1; Zeta Count Rate Category ([4]; category 1 or 0 derived from the count rate, key not given): 1 |
| CKIKQIINM [BL1] | 12.9 | 1 (+1 = if > 4 mV) | 12.9 | 12.9 | 12.9 | -0.3035 | 11280 | 20.89 | 0.4971 | 20.89 | -0.3035 | 0.4971 | – | – | medium | -0.3035 | 46% | 9058 | 9058 | 9058 | Zeta category ( +1 = if > 4 mV;-1 = if < -4 mV; 0 = -4mV to 4 mV) ([1]; category from zeta potential): 1 (+1 = if > 4 mV); Rel-to EFC (Feb-2021) [2, 18]: 0.4971; FTIR ß-sheet content/ % [3]: 46%; Zeta Count Rate Category ([4]; category 1 / 0, no key given): 1; Zeta Count Rate Category [4, 19]: 1 |
| KFKFQFNMWQ [JG4] | – | 1 (+1 = if > 4 mV) | 25.4 | 25.4 | 25.4 | -0.1164 | – | – | 0.7649 | 32.14 | -0.1164 | 0.7649 | 0.7649 | 32.1399 | high | -0.1164 | 43% and 43.15% | 734.6 | 734.6 | 734.6 | Zeta category ( +1 = if > 4 mV;-1 = if < -4 mV; 0 = -4mV to 4 mV) ([1]; category from zeta potential): 1 (+1 = if > 4 mV); Zeta Pot. / mV ([1]; mean, Std Zeta in separate column): 25.4 mV; n-fold to virus (Feb2021) ([2]; Feb2021, 1.3 µM value relative to virus only (0 µM)): 32.14; Rel-to EFC (Feb-2021) [2, 18]: 0.7649; Absolute Infectivity / RLU /s (Feb2021) ([2]; Feb2021, unrounded values of the 1.3 µM column): 20676.66667 RLU /s; Absolute Infectivity / RLU /s (Feb2021) ([2]; Feb2021 data set, in other rows equals the 1.3 µM column, mean, STD in separate column): 20676.66667 RLU /s; Rel-to EFC (Feb-2021) ([2]; Feb2021 data set, infectivity enhancement relative to EF-C): 0.7649; n-fold to virus (Feb2021) ([2]; Feb2021 data set, infectivity n-fold to virus alone): 32.14; Log10 of Rel to EFC (Feb2021) ([2]; Feb2021 data set, log10 of infectivity relative to EF-C): -0.1164; infectivity ([2]; infectivity class (low / medium / high) of the peptide in the sequence-pattern analysis, Fig. S22-A4, class limits not given): high; FTIR ß-sheet content/ % [3]: 43.15%; Log Count Rate [4, 15]: 2.866; Log Count Rate ([4]; Fig S8 panels B, D): 2.866; Count Rate ([4]; Fig S8 panels B, D): 734.63; Zeta Count Rate Category ([4]; category 1/0, no key printed): 1; Zeta Count Rate Category [4, 19]: 1; Zeta Count Rate Category ([4]; category from count rate, key not given): 1 |

Reference: publication PMC10447463, “Data-mining unveils structure–property–activity correlation of viral infectivity enhancing self-assembling peptides” (Nature Communications, 2023)
